System: T. cruzi
Test: 2D-GE plasma proteome profile (differential protein expression) of T. cruzi-infected rats treated with PBN and/or BZ
Assay type: in vivo, rat
Details: plasma
Text: Certain embodiments include biomarkers identified in a previous study. Parasite persistence and oxidative damage in the heart are known to be of pathological significance during Chagas disease (Zacks et al., (2005) An Acad Bras Cienc, 77, 695-715; Gupta et al., (2009) Interdiscip Perspect Infect Dis, 2009, 190354). […] In the previous study the inventors identified 92 proteins that were differentially expressed or oxidized in chagasic plasma. Functional analysis allocated a majority of these proteins to inflammation/immunity and lipid metabolism categories, and to molecular pathways associated with cardiovascular dysfunction, e.g., myocardial infarction, hypertrophy, and fibrosis, and pulmonary embolism and hypertension. Some proteins in chagasic rats treated with PBN and/or BZ were allocated to curative pathways (immune regulation and cardiac remodeling). The 2D-GE results were validated by Western blotting. […] Increased plasma levels of GSN, MYL2, and VIM were directly correlated with the severity of cardiac disease in human chagasic patients. […] These findings have utility in diagnosing disease severity and designing suitable therapy for management of human chagasic patients.
Ingenuity Pathway Analysis (IPA) is a highly curated and comprehensive software used for the integration of proteins into networks and pathways with biological meaning (Thomas and Bonchev, (2010). Hum Genomics, 4, 353-360). Network analysis of the plasma proteome profile of chagasic rats identified four major sub-networks linked to host response to T. cruzi infection and disease development (Table V). The maximal numbers of the differentially expressed plasma proteins (19 proteins) in chagasic rats were associated with antigen presentation and inflammatory response category (Table V) and indicators of persistent inflammation, known to be of pathological significance in Chagas disease (Dhiman et al., (2009) Clinical and Vaccine Immunology, 16, 660-666; Tanowitz et al., (2009) Prog Cardiovasc Dis, 51, 524-539; Junqueira et al., (2010) Expert Rev Mol Med, 12, e29). Following functional analysis of the inflammation-associated proteins, 12 proteins (APOA1, APOE, C3, CFB, CFH, FGB, GSN, KRT10, PLG, SCG2, SERPINA1, and SERPINC1) were identified as being involved in immune cell trafficking and cell movement of leukocytes, granulocytes, phagocytes, neutrophils, and dendritic and antigen presenting cells. Some of the differentially expressed proteins in inflammation category were associated with activation (APOE, C3, CFH, GC and PLG), chemotaxis (C3, SCG2, SERPINA1, SERPINC1), and infiltration of leukocytes (APOA1, APOE, C3, PLG, KRT10) and neutrophils (C3, CFB, CFH, PLG). Up regulation of APOE, APOA1, APOH, GC and PLG in chagasic plasma was indicative of activation, binding and accumulation of macrophages in the disease state. Of the 19 differentially expressed inflammation-associated proteins, 11 proteins (APOE, C3, CFB, CFH, GSN, KRT10, SCG2, SERPINA1, SERPINC1, GC, and PLG) were carbonylated in chagasic plasma. […] Other proteins (APOE, C3, KRT3, and SCG2) were exposed to oxidation due to T. cruzi-induced, acute oxidative stress, but were normalized in expression and oxidation during the chronic phase.
Seventeen of the differentially expressed proteins in chagasic plasma, i.e., AFM, C4BPA, CACNA1D, DLGAP2, GC, KNG1, MUG1, MYLPF, MY05A, MY05B, PRPH, PZP, RAI14, and SCG2, were allotted to the lipid metabolism/molecular transport/small molecule biochemistry category (Table V) and functionally linked by IPA network analysis to lipid, fatty acid, and carbohydrate metabolism. A majority of the proteins in this category, i.e., ALB, APOA1, APOA4, APOE, APOH, C3, GC, GNAQ, MY05A, PLG, SCD2, SERPINA1, SERPINC1 and VIM, were linked to the synthesis, metabolism, transport, and modification of lipids and fatty acids, and to uptake and release or efflux of lipids, eicosanoids, and cholesterol. […]

[1] = RCP/RCB/RCPB groups (chronic infection)

For `CC(C)(C)/[N+]([O-])=C/c1ccccc1` [PBN], the “Spot# 979 Average Normalized Density × 100,000” value (RAP group (acute infection)) was 59.46, the “Spot# 992 Average Normalized Density × 100,000” value (RAP group (acute infection)) was 34.51 and the “Spot# 12, 180 Average Normalized Density × 100,000” value [1] was 7.22. The “Spot# 34 Average Normalized Density × 100,000” value [1] was 0.45, the “Spot# 37, 593 Average Normalized Density × 100,000” value [1] was 6.48 and the “Spot# 49, 673 Average Normalized Density × 100,000” value [1] was 13.39. For the same compound, the “Spot# 52, 54, 302 Average Normalized Density × 100,000” value [1] was 14.45, the “Spot# 53, 225 Average Normalized Density × 100,000” value [1] was 15.12 and the “Spot# 72 Average Normalized Density × 100,000” value [1] was 16.43. The “Spot# 73, 705, 787 Average Normalized Density × 100,000” value [1] was 38.67, the “Spot# 77 Average Normalized Density × 100,000” value [1] was 8.675 and the “Spot# 88 Average Normalized Density × 100,000” value [1] was 40.49. The “Spot# 94 Average Normalized Density × 100,000” value [1] was 2.55, the “Spot# 115, 123 Average Normalized Density × 100,000” value [1] was 10.96 and the “Spot# 149 Average Normalized Density × 100,000” value [1] was 4.39. For the same compound, the “Spot# 153 Average Normalized Density × 100,000” value [1] was 10.34, the “Spot# 177 Average Normalized Density × 100,000” value [1] was 1.60 and the “Spot# 181 Average Normalized Density × 100,000” value [1] was 1.90. The “Spot# 184, 257, 328 Average Normalized Density × 100,000” value [1] was 5.85, the “Spot# 207, 555 Average Normalized Density × 100,000” value [1] was 9.12 and the “Spot# 215 Average Normalized Density × 100,000” value [1] was 1.97. For the same compound, the “Spot# 266 Average Normalized Density × 100,000” value [1] was 0.54, the “Spot# 299 Average Normalized Density × 100,000” value [1] was 1.17 and the “Spot# 315 Average Normalized Density × 100,000” value [1] was 8.23. For the same compound, the “Spot# 334 Average Normalized Density × 100,000” value [1] was 0.71, the “Spot# 341 Average Normalized Density × 100,000” value [1] was 1.10 and the “Spot# 355, 359 Average Normalized Density × 100,000” value [1] was 2.20. The “Spot# 382, 385, 378, 572, 578, 595 Average Normalized Density × 100,000” value [1] was 3.29, the “Spot# 389 Average Normalized Density × 100,000” value [1] was 4.32 and the “Spot# 430 Average Normalized Density × 100,000” value [1] was 8.21. For the same compound, the “Spot# 434, 678 Average Normalized Density × 100,000” value [1] was 24.63, the “Spot# 439 Average Normalized Density × 100,000” value [1] was 14.99 and the “Spot# 452 Average Normalized Density × 100,000” value [1] was 10.01. The “Spot# 464 Average Normalized Density × 100,000” value [1] was 6.65, the “Spot# 479 Average Normalized Density × 100,000” value [1] was 32.56 and the “Spot# 493 Average Normalized Density × 100,000” value [1] was 13.46. The “Spot# 515 Average Normalized Density × 100,000” value [1] was 7.78, the “Spot# 524 Average Normalized Density × 100,000” value [1] was 21.96 and the “Spot# 551, 587, 908 Average Normalized Density × 100,000” value [1] was 54.1. For the same compound, the “Spot# 559 Average Normalized Density × 100,000” value [1] was 27.58, the “Spot# 571 Average Normalized Density × 100,000” value [1] was 38.63 and the “Spot# 576, 620 Average Normalized Density × 100,000” value [1] was 16.66. The “Spot# 586, 614 Average Normalized Density × 100,000” value [1] was 38.00, the “Spot# 592 Average Normalized Density × 100,000” value [1] was 31.55 and the “Spot# 604 Average Normalized Density × 100,000” value [1] was 23.66. The “Spot# 606 Average Normalized Density × 100,000” value [1] was 5.58, the “Spot# 627 Average Normalized Density × 100,000” value [1] was 54.85 and the “Spot# 638 Average Normalized Density × 100,000” value [1] was 5.92. For the same compound, the “Spot# 649 Average Normalized Density × 100,000” value [1] was 37.11, the “Spot# 651 Average Normalized Density × 100,000” value [1] was 57.85 and the “Spot# 655 Average Normalized Density × 100,000” value [1] was 149.20. For the same compound, the “Spot# 672 Average Normalized Density × 100,000” value [1] was 17.65, the “Spot# 676 Average Normalized Density × 100,000” value [1] was 42.59 and the “Spot# 691 Average Normalized Density × 100,000” value [1] was 16.29. The “Spot# 715 Average Normalized Density × 100,000” value [1] was 32.20, the “Spot# 724 Average Normalized Density × 100,000” value [1] was 2.23 and the “Spot# 728 Average Normalized Density × 100,000” value [1] was 1.13. For the same compound, the “Spot# 733 Average Normalized Density × 100,000” value [1] was 2.44, the “Spot# 740 Average Normalized Density × 100,000” value [1] was 7.33 and the “Spot# 745 Average Normalized Density × 100,000” value [1] was 3.21. For the same compound, the “Spot# 749 Average Normalized Density × 100,000” value [1] was 1.70, the “Spot# 766 Average Normalized Density × 100,000” value [1] was 6.32 and the “Spot# 779, 909 Average Normalized Density × 100,000” value [1] was 6.88. The “Spot# 796 Average Normalized Density × 100,000” value [1] was 8.33, the “Spot# 814 Average Normalized Density × 100,000” value [1] was 1.56 and the “Spot# 817 Average Normalized Density × 100,000” value [1] was 29.59. The “Spot# 820, 1081 Average Normalized Density × 100,000” value [1] was 2.20, the “Spot# 827 Average Normalized Density × 100,000” value [1] was 17.80 and the “Spot# 832 Average Normalized Density × 100,000” value [1] was 7.55. For the same compound, the “Spot# 860 Average Normalized Density × 100,000” value [1] was 5.79, the “Spot# 867 Average Normalized Density × 100,000” value [1] was 3.00 and the “Spot# 881 Average Normalized Density × 100,000” value [1] was 6.68. The “Spot# 897 Average Normalized Density × 100,000” value [1] was 31.94, the “Spot# 900 Average Normalized Density × 100,000” value [1] was 44.00 and the “Spot# 906 Average Normalized Density × 100,000” value [1] was 87.74. The “Spot# 966 Average Normalized Density × 100,000” value [1] was 59.29, the “Spot# 979 Average Normalized Density × 100,000” value [1] was 41.38 and the “Spot# 992 Average Normalized Density × 100,000” value [1] was 57.94.

— patent publication US9696323B2, “Biomarkers for chagas disease related cardiomyopathy” (THE BOARD OF REGENTS OF THE UNIVERSITY OF TEXAS SYSTEM, priority 2013, dated 2017)
